Measurements reported in article PMC4657468, “Impaired uptake of conjugated bile acids and hepatitis b virus pres1-binding in na^+-taurocholate cotransporting polypeptide knockout mice” (Hepatology (Baltimore, Md.), 2015).
Where two headings read alike, the source gives them in different places.

How the values were obtained:
[1] = for Serum TCA elimination t½: intravenous bolus 150 μmol TCA/kg with trace tritium-labeled TCA after gallbladder cannulation, one-phase decay, n = 5
Description: Differences between groups were analyzed using a two-tailed Student t test. […] Results were considered statistically significant at P < 0.05.

[2] = biological target: T1, NTCP (Mus musculus, UniProt O08705); conditions: 1 μM Myrcludex B, 30 min preincubation, WT PMHs, 10 μM TCA, 1 minute
T1 sequence (O08705 1-362): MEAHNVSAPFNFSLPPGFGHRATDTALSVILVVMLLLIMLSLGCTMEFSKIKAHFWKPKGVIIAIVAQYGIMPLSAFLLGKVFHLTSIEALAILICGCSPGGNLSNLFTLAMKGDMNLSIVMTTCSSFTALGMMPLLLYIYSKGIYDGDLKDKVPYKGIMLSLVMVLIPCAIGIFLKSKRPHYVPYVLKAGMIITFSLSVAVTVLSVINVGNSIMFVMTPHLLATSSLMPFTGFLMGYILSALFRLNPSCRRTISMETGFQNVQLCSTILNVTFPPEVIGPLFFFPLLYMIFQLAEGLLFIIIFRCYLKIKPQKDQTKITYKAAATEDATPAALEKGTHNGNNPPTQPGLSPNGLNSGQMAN
Description: (§1) Bars represent the mean ± SEM for two independent experiments, each performed in triplicate. *P < 0.05. (B) Total serum BA concentrations in male and female WT and Slc10a1^−/− (KO) mice. Data are given as mean ± SEM on a ^10log scale for seven to 16 mice in each group, quantified using the total BA assay. Serum composition of (C) conjugated and (D) unconjugated BA species as quantified using high-pressure liquid chromatography. […] Unconjugated BA (U-BA) concentrations are the sum of ω-muricholic acid, α-muricholic acid, β-muricholic acid, cholic acid, UDCA, chenodeoxycholic acid, and DCA. Data are given as mean ± SEM on a ^10log scale for three to six mice in each group. *P < 0.05 (compared to WT levels). […] Conjugated BA (dark gray) and unconjugated BA (light gray) species are shown as a percentage of total, as quantified using high-pressure liquid chromatography. (F) Total serum BA levels in relation to body weights of WT (open dots) and KO (black dots) 8-week-old mice (n – 11–14). […]
(§2) mouse NTCP antibody in block ing buffer f or 1 hour. Af ter washings, the slides were incubated with goat anti-rabbit Alexa 568 IgG. Images were captured with a Leica SP8X […]
(§3) Primary hepatocyte isolation and sandwich culture
(§4) Primary mouse hepatocytes (PMHs) were isolated from wild- type and Slc10a1 -/- mice by a 2-step collagenase perfusion method. […]

[3] = tested on: Slc10a1−/− PMHs; assay type: cell-based, mouse; conditions: 1 μM Myrcludex B, sodium-dependent as well as sodium-free conditions
Description: as §1, §2, §3, §4

[4] = tested on: hepatitis B virus; conditions: cited from earlier work
Description: (§5) During and after a meal, bile acids (BAs) are released into the small intestine, where they facilitate the absorption of dietary fat and fat-soluble vitamins.[1] The majority of BAs are reabsorbed in the terminal ileum and transported back to the liver through the portal circulation. At the basolateral membranes of the hepatocytes, BAs are taken up from the portal circulation, extruded across the canalicular hepatocyte membrane, and transported to the gallbladder to complete the enterohepatic circulation.[2] Conjugated BAs are transported across the basolateral hepatic membrane through a sodiu ...

[5] = tested on: NTCP; conditions: at high concentrations; cited from earlier work
Description: as §5

| Compound | Serum TCA elimination t½ ([1]; WT mice) | Lethality of the high dose of TCA ([1]; hypercholanemic Slc10a1−/− mice, intravenous bolus 150 μmol TCA/kg, shortly after injection) | Serum TCA elimination t½ ([1]; normocholanemic Slc10a1−/− mice) | Effect on TCA uptake under sodium-free conditions ([2]; NMDG buffer) | Effect on sodium-dependent TCA uptake ([2]; sodium-containing buffer) | Effect on TCA uptake in Slc10a1−/− PMHs [3] | Virus entry mediated by NTCP [4] | NTCP-mediated BA uptake [5] |
| --- | --- | --- | --- | --- | --- | --- | --- | --- |
| C[C@H](CCC(=O)NCCS(=O)(=O)O)[C@H]1CC[C@H]2[C@@H]3[C@H](O)C[C@@H]4C[C@H](O)CC[C@]4(C)[C@H]3C[C@H](O)[C@]12C [TCA, taurocholic acid] | 1.5 min | lethal | 5.3 min | – | – | – | – | – |
| Myrcludex B | – | – | – | no effect | abrogated sodium-dependent TCA uptake | unaffected | blocked | inhibits NTCP-mediated BA uptake at high concentrations |
